Molecules are shown by their SMILES.

The subject of experiment [1] is mouse B cell subsets (CD19+, follicular, marginal zone, blood B cells). Kind of experiment: IL-10 expression, IL-10 secretion and plasma cell generation in B cell subsets, CpG-based culture. To be noted: 0.25 μM, 3 days. The source says: Resting mouse B cells were isolated from spleen by magnetic depletion of CD43^+ cells and total CD19^+ B cells, follicular B cells (CD19^+/CD21^low/−/CD23^high/CD1d^low) and marginal zone B cells (CD19^+/CD21^high/CD23^low/−/CD1d^hi) were purified by FACS. Total CD19^+ blood B cells were directly purified by FACS after red blood cell lysis. […] Generation of B220^low/CD138^high plasma cells was also quantified by flow cytometry. Data are presented as mean±SD. n≥3 independent experiments.

Experiment [2] deals with resting mouse B cells. Kind of experiment: IL-10 expression in TLR-, CD40- and BCR-stimulated B cells by flow cytometry. The class given is cell-based. To be noted: 0.25 μM, stimulation through TLR4, TLR7/8, TLR9, CD40, IgM, 72 hours. The protocol: Resting mouse B cells were isolated from spleen by magnetic depletion of CD43^+ cells and stimulated through TLR4, TLR7/8, TLR9, CD40, and IgM as indicated for 3 consecutive days. Cell culture medium was supplemented with DMSO-vehicle control, C3 or N6 at 0.25 μM. B cells from C57BL/6 mice were used to determine autofluorescence in eGFP channel and IL-10.eGFP-IL-6.tdTomato mice were used to monitor IL-10 expression by flow cytometry at 72 hours. The percentage of viable/singlets/CD19^+/IL-10^+ cells is shown. Data are presented as mean±SD. n≥3 independent experiments.
For orientation: A flow cytometer gives signals particle by particle.

The subject of experiment [3] is resting mouse B cells from spleen of IL-10.eGFP mice. Kind of experiment: High throughput flow cytometry-based phenotypic screen for IL-10 inducers. Conditions: 10 μM, LPS, 72 hours. The experiment is classed as cell-based. On the procedure: Resting mouse B cells were isolated from spleen of IL-10.eGFP mice by magnetic depletion of CD43+ cells, and stimulated for 72 hours in 384-well plates in the presence of chemical compounds at 10 μM final. The chemical library originated from the Leibniz-Forschungsinstitut für Molekulare Pharmakologie (FMP) (Berlin, Germany). The frequency of IL-10-expressing B cells was then measured in each well by flow cytometry.

Experiment [4] has as its system resting mouse B cells. Kind of experiment: Il10 mRNA expression in B cells (quantitative RT-PCR). The experiment is classed as cell-based. To be noted: 0.25 μM. The protocol: Resting mouse B cells were isolated from spleen by magnetic depletion of CD43^+ cells. B cells were incubated with DMSO-vehicle control or N6 (0.25 μM), as such, or in combination with CpG. mRNA was extracted at different time-points and il10/actin ratio was determined.
Resting mouse B cells were isolated from spleen by magnetic depletion of CD43^+ cells. B cells were incubated with DMSO vehicle control, or C3 or N6 at 0.25 μM for the indicated time, and Il10 mRNA induction was quantified by quantitative RT-PCR.

For the compound `CC(=O)Nc1ccc(C(=O)Nc2ccc(-c3nc4cc(NC(=O)c5ccc(NC(C)=O)cc5)ccc4[nH]3)cc2)cc1` [Compound C3], in experiment [1], the “differentiation of B cells into plasma cells (B220low/CD138high)” value is “increase”. For the same compound, the “amount of IL-10 produced by stimulated B cells” value in experiment [1] (cell-free supernatants) was “increase”. Besides, the “proportion of activated B cells expressing IL-10” value in experiment [1] (flow cytometry) is recorded as “increase”. In addition, the “IL-10 expression in B cells (percentage of IL-10+ cells)” value in the experiment with resting mouse B cells [2] is listed as “increase IL-10 expression in B cells across a broad range of stimulation protocols”. In experiment [3], the “IL-10 expression in stimulated B cells” value is reported as “markedly increases IL-10 expression”. Also, the “Il10 transcription in unstimulated B cells” value with resting mouse B cells [4] is reported as “Increase Il10 Transcription”.

These data come from US20250388551A1, “COMPOUNDS INDUCING PRODUCTION OF PROTEINS BY IMMUNE CELLS” (UNIVERSITE PARIS CITE, priority 2022, published 2025).
